Laboratory results: PubChem BioAssay AID463203 (Broad Institute, 2010)
Calls of active or inactive are those of the source.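 How the source made its calls: active means more than half of replicate measurements showing over 20% loss of kinase signal relative to plate controls; inconclusive means some but at most half of replicates over 20% loss; inactive means no replicate over 20% signal loss.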

Target: Glycogen synthase kinase-3 alpha (Homo sapiens) (UniProt P49840)
Assay: concentration-response blocking of human GSK3A – biochemical, luminescence, cell-free homogeneous, retest, dose response (AID 463203)
Settings: GSK-3 alpha enzyme, ADP-Glo luminescence, 60 min

Chain of Glycogen synthase kinase-3 alpha (Homo sapiens) (P49840 whole entry, looked up): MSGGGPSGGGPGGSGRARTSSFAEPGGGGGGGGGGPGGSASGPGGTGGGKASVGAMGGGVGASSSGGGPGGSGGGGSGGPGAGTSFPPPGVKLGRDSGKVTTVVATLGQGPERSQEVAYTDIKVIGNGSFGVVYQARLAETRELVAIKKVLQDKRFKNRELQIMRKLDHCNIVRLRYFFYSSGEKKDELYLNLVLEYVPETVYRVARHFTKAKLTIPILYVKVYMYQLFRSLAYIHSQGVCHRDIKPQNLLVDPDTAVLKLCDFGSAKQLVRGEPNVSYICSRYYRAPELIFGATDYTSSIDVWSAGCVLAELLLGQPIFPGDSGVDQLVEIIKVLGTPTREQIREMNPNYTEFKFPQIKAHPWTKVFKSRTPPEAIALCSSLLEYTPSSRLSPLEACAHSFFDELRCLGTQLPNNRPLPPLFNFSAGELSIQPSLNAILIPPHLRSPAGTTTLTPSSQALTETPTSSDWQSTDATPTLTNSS

SMILES | AC50
Cc1ccc(NC(=O)CSCc2nc3c(nnn3Cc3ccc(F)cc3)c(=O)[nH]2)c(C)c1 | > 30 µM (inactive)
COc1cc(/C=N/O)ccc1OCc1ccc([N+](=O)[O-])cc1 | > 30 µM (inactive)
N#Cc1c(Cl)c(Cl)c2nnc(-c3ccc(Br)cc3)n2c1Cl | 20.6 µM
CC1CCCC(C)N1C(=O)COC(=O)c1c[nH]c2ccccc12 (stereo unspecified) | > 30 µM (inactive)
CC1CCN(Cc2c(O)ccc3c2O/C(=C\c2ccco2)C3=O)CC1 | 4.41 µM
CCn1c(=O)[nH]c(=O)c2c(N)c(C(=O)c3cc(F)ccc3F)sc21 | 10.4 µM
CC1CCCN(Cc2c(O)ccc3c2O/C(=C\c2ccco2)C3=O)C1 (stereo unspecified) | 9.29 µM
O=C(CNCC1CCCO1)Nc1ccc([N+](=O)[O-])cc1C(=O)Nc1ccccc1F (stereo unspecified) | > 30 µM (inactive)
O=C(CSc1cccs1)Nc1ccc(Cl)cc1 | > 30 µM (inactive)
CC(C)(C)NC(=O)/C(=C\c1ccccc1F)NC(=O)c1ccc([N+](=O)[O-])cc1 | > 30 µM (inactive)
CCOC(=O)c1cc(C)sc1NC(=O)CCC(=O)O | > 30 µM (inactive)
S=C(Nc1ccccc1)Nc1ccc2cn[nH]c2c1 | 24.9 µM
O=C(O)c1ccc(N=Nc2c(O)[nH]c3ccc(Br)cc23)cc1 | 3.54 µM
COc1c2ccccc2nc2ccccc12 | > 30 µM (inactive)
COC1(OC)N=C(N)C2(C#N)C(c3ccc(C)cc3)C12C#N (stereo unspecified) | > 30 µM (inactive)
C=CCn1c(O)c(C=NC2CCN(Cc3ccccc3)CC2)c(=O)[nH]c1=O | > 30 µM (inactive)
CCC(C)[C@H](NC(=O)Nc1ccc(S(N)(=O)=O)cc1)C(=O)O (stereo partly specified) | > 30 µM (inactive)
CCCCNc1nc(N)nc(-c2cc(Cl)ccc2O)n1 | 3.04 µM
N#C/C(=N\Nc1cccc(F)c1)C(=O)C1CC1 | > 30 µM (inactive)
COc1cc(C(=O)NNC(=O)C2CSC3(C)CCC(=O)N23)cc(OC)c1OC (stereo unspecified) | > 30 µM (inactive)
COC(=O)c1oc2ccc(Cl)cc2c1N | > 30 µM (inactive)
O=Cc1cc(N=Nc2ccc(S(=O)(=O)O)cc2)ccc1O | > 30 µM (inactive)

SMILES | AC50
Cc1ccc2nc(-c3ccccn3)[nH]c2c1 | > 30 µM (inactive)
N#Cc1c(NC(=O)CSc2n[nH]c(N)n2)oc(-c2ccccc2)c1-c1ccccc1 | > 30 µM (inactive)
Cc1ccc(N=CC2=C(O)CC(C)(C)CC2=O)nc1 | > 30 µM (inactive)
CC1(C)Cc2nc3sc4c(SCC(=O)O)ncnc4c3cc2CO1 | 6.18 µM
CCn1c2ccc(Cl)cc2c2nc3ccccc3nc21 | > 30 µM (inactive)
O=C1NC(=Nc2ccccc2)S/C1=C\c1cccs1 | > 30 µM (inactive)
Cc1sc2ncnc(N3CCC(C(=O)Nc4ccc(S(N)(=O)=O)cc4)CC3)c2c1C | 28.2 µM
O=C(O)c1cccc2c1C(=O)c1ccc(Cl)cc1S2(=O)=O | > 30 µM (inactive)
Nc1ncnc2c1ncn2[C@@H]1O[C@H](CNCc2ccccc2)[C@@H](O)[C@H]1O | > 30 µM (inactive)
COc1cccc(/C=N/n2cncn2)c1OCC#N | > 30 µM (inactive)
CCN(C(=O)CN1CCCCC1)c1c(N)n(Cc2ccccc2)c(=O)[nH]c1=O | > 30 µM (inactive)
Cc1sc2ncnc(NCc3cccs3)c2c1C | > 30 µM (inactive)
Cc1cc(=O)[nH]c2cc(O)ccc12 | > 30 µM (inactive)
COc1cccc(CC(=S)N2CCOCC2)c1 | > 30 µM (inactive)
CC1CN(c2nc(N(C)c3ccccc3)nc(N)c2[N+](=O)[O-])CC(C)O1 (stereo unspecified) | > 30 µM (inactive)
Cc1ccnc2ccc(SC(F)(F)F)cc12 | > 30 µM (inactive)
C=CCn1c(O)c(C=NCCCn2ccnc2)c(=O)[nH]c1=O | 14 µM
CC1CCN(Cc2c(C(=O)N/N=C/c3ccc(C(F)(F)F)cc3)nnn2-c2nonc2N)CC1 | > 30 µM (inactive)
O=C(c1ccco1)N(Cc1ccccc1)c1cccc([N+](=O)[O-])c1 | > 30 µM (inactive)
O=C(c1ccco1)N(Cc1ccc([N+](=O)[O-])cc1)c1ccc(Cl)cc1 | > 30 µM (inactive)
O=C(c1ccccc1)c1cnc(Nc2ccccc2Cl)s1 | > 30 µM (inactive)
CCN(CC)C(=O)c1ccc(NC(=O)Nc2ccccc2F)cc1 | 26.5 µM

SMILES | AC50
COc1c(-c2ccc(O)c(O)c2)oc2cc(O)cc(O)c2c1=O | 1.93 µM
CNS(=O)(=O)c1cccc(C(=O)OCC(=O)Nc2ccc(Cl)cn2)c1 | 6.77 µM
Cc1cc(/C=N\NC(=O)c2cccs2)c(C)n1-c1ccc2ncccc2c1 | > 30 µM (inactive)
Cc1ccc(C(=O)O/N=C(\N)c2cccc([N+](=O)[O-])c2)cc1 | > 30 µM (inactive)
N#CCCn1cc(/C=N/O)c(-c2ccccc2)n1 | > 30 µM (inactive)
O=C(O)CN1C(=O)C2C3CC(C2C1=O)C1C(c2ccccc2)c2sc(=O)[nH]c2SC31 (stereo unspecified) | > 30 µM (inactive)
CC(C)NC(=O)Nc1n[nH]c(Nc2ccc(Cl)cc2)n1 | 4.87 µM
CC1(C)CC(=O)C(C(c2cccnc2)C2C(=O)CC(C)(C)CC2=O)C(=O)C1 | > 30 µM (inactive)
CSc1nc(SCCN(C)C)c2c3c(sc2n1)COC(C)(C)C3 | > 30 µM (inactive)
CC1(C)CC(=O)C(C2c3ccccc3Oc3ccccc32)C(=O)C1 | > 30 µM (inactive)
CC1(C)CC(=O)C(CS(=O)(=O)c2ccccc2)=C(O)C1 | > 30 µM (inactive)
NS(=O)(=O)c1cccc(NC(=O)CSc2nnc(-c3ccccc3)o2)c1 | > 30 µM (inactive)
CCOC(=O)CC1COc2ccccc2N1C(=O)c1ccc(C)cc1 (stereo unspecified) | > 30 µM (inactive)
CCOc1cccc(-c2c(C(=O)N/N=C/c3sccc3C)nnn2-c2nonc2N)c1 | > 30 µM (inactive)
COc1ccccc1/C=N/NC(=O)c1nnn(-c2nonc2N)c1-c1cccs1 | 0.779 µM
CSc1cccc(NC(=O)CN(C)S(=O)(=O)c2cnc[nH]2)c1 | > 30 µM (inactive)
CN(Cc1c(C(=O)N/N=C/c2ccccc2)nnn1-c1nonc1N)C1CCCCC1 | > 30 µM (inactive)
Cc1cccc(C(=O)O/N=C(\N)c2cccc([N+](=O)[O-])c2)c1 | > 30 µM (inactive)
CCN1CCN(c2c(Cl)cccc2NC(=O)c2cccs2)CC1 | > 30 µM (inactive)
C/C(CC(=O)N(C(C)C)C(C)C)=N\NC(=O)COc1ccc(Cl)cc1Cl | > 30 µM (inactive)
COc1ccc(CCNC(=O)CSc2nc3[nH]ncc3c(=O)n2-c2ccccc2OC)cc1OC | 1.89 µM
COC(=O)c1c(NC(=O)COC(=O)c2ccccn2)sc(C)c1C | > 30 µM (inactive)

SMILES | AC50
Nc1c(C(=O)Nc2ccc3c(c2)OCCO3)nnn1Cc1ccccc1Cl | > 30 µM (inactive)
CN(C)CCCNS(=O)(=O)c1ccc(NC2CCCCCC2)c([N+](=O)[O-])c1 | > 30 µM (inactive)
O=C1NC(=O)/C(=C\c2ccc(OCc3cccc(C(=O)O)c3)c(Cl)c2)N1 | 4.85 µM
CC(C)c1ccc(C2CC(=O)N3CN(Cc4ccco4)CSC3=C2C#N)cc1 (stereo unspecified) | 21 µM
Nc1nonc1-n1nnc(C(=O)N/N=C\c2cccc(Cl)c2)c1CN1CCOCC1 | 15.2 µM
COc1ccccc1NC(=O)CSc1nnc(-c2ccncc2)o1 | > 30 µM (inactive)
O=C(O)c1cccc2c1C(=O)c1cc(Br)ccc1S2(=O)=O | > 30 µM (inactive)
COc1ccc(CC(=O)Nc2ccc(-c3cn4ccccc4n3)cc2)cc1OC | > 30 µM (inactive)
COc1ccc(-c2nc(N)ncc2-c2ccccc2)c(O)c1 | 15.5 µM
NC(=O)c1ccsc1NC(=O)C1CC1 | > 30 µM (inactive)
N#Cc1c(Nc2ccccc2)c(/C=N/NCCO)c[nH]c1=O | > 30 µM (inactive)
Cc1cc(NC(=O)c2sc(Nc3ccc(F)cc3)nc2N)no1 | 8.04 µM
Cc1cccc(Nc2nc(C)cc(C)n2)c1 | > 30 µM (inactive)
COc1ccccc1OC(C)C(=O)N1CCC(Cc2ccccc2)CC1 (stereo unspecified) | > 30 µM (inactive)
COc1ccc(-c2noc(CSc3nc(N)cc(=O)[nH]3)n2)cc1 | > 30 µM (inactive)
Nc1nnc(SCC(=O)Nc2sc3c(c2C(=O)c2ccccc2)CCCC3)s1 | > 30 µM (inactive)
COc1ccc(CNc2ccc3cn[nH]c3c2)c(OC)c1OC | 19.8 µM
Cc1ccnc(NC(=O)CCC(=O)N(CC(=O)NCc2ccc(F)cc2)Cc2ccco2)c1 | > 30 µM (inactive)
O=c1[nH]c(=O)n(Cc2ccc(F)cc2)c(O)c1C=NCCCn1ccnc1 | > 30 µM (inactive)
CCN(C(=O)CN1CCCC(C)C1)c1c(N)n(Cc2ccccc2)c(=O)[nH]c1=O (stereo unspecified) | > 30 µM (inactive)
c1ccc(-c2noc(CSc3nnnn3-c3ccccc3)n2)cc1 | > 30 µM (inactive)
CC(C)CC(=O)Nc1ccc(-c2cn3cccnc3n2)cc1 | > 30 µM (inactive)

SMILES | AC50
Cc1cccc(N=c2oc3cc(O)ccc3cc2C(N)=O)c1 | 5.52 µM
COc1ccc(N=Cc2c(O)[nH]c3ccccc23)cc1OC | 20.3 µM
COCc1cc(C)nc(OCC(=O)N/N=C/c2ccc(O)cc2)c1C#N | 13.3 µM
CCN1C(=O)c2ccc(C(=O)NCc3ccc4c(c3)OCO4)cc2C1=O | > 30 µM (inactive)
O=C(O)c1cccc(Nc2nc(-c3cccnc3)nc3ccccc23)c1 | 12.5 µM
CCOC(=O)CSc1ncnc2c(C(=O)OCC)c3n(c12)CCC3 | > 30 µM (inactive)
COc1ccccc1N/C=C/c1onc(C)c1[N+](=O)[O-] | > 30 µM (inactive)
CCOc1ccc(Cn2nnc(C(=O)Nc3cc(OC)cc(OC)c3)c2N)cc1 | 13.7 µM
O=c1ccc2ccccc2o1 | > 30 µM (inactive)
COc1cccc(C(=O)NCC(=O)OCC(=O)c2ccccc2)c1 | > 30 µM (inactive)
O=[N+]([O-])c1cnc2nc(-c3ccncc3)nn2c1O | 8.27 µM
CCN(C(=O)CN1CCCCCC1)c1c(N)n(Cc2ccccc2)c(=O)[nH]c1=O | > 30 µM (inactive)
Cc1ccc(S(=O)(=O)N(CC(O)CN2CCCC2)c2ccccc2)cc1 (stereo unspecified) | > 30 µM (inactive)
Cc1cc(=O)[nH]c2ccccc12 | > 30 µM (inactive)
Cc1ccc(SCCc2cc[n+](CC(=O)c3ccccc3)cc2)cc1 | > 30 µM (inactive)
CN1/C(=C/C(=S)NC(=O)C2CCC2)C(C)(C)c2ccccc21 | > 30 µM (inactive)
CC(=O)Nc1ccc2nsnc2c1 | > 30 µM (inactive)
COc1ccccc1NC(=O)CSc1nnc(-c2ccc(C)cc2)o1 | > 30 µM (inactive)
